The subject of one test is SW-13 cells. Description: Cancer cell proliferation inhibition (Cell Counting Kit-8), adrenal cancer cell line. Type of test: cell-based. The note with it: 1000 nM, cultured seven to 11 days; for inhibition at 1 µM: Homo sapiens, SW13, 264 h, read-out: % inhibition rate SW-13; for % inhibition rate SW-13: 1 µM. The procedure, abridged:
(§1)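 After plating 100 to 1,000 cells per well in medium with 10% fetal bovine serum, each line receives 1000 nM compound and is cultured for seven to 11 days. Growth inhibition is derived from CCK-8 signal compared with control cultures.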

Another test has as its target EZH1 (Homo sapiens, UniProt Q92800). The experiment in a line: AlphaLISA enzyme activity inhibition, EZH1. As to conditions: for inhibition at 0.005 µM: 5nM test substance. In kind it is biochemical. The procedure, abridged:
(§2)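 Enzyme inhibition rate was calculated relative to DMSO from AlphaLISA signal, with acceptor beads added after a 2 h methylation reaction and donor beads 1 h later. Each enzyme, EZH1 or EZH2, was pre-mixed with compound (final 5 nM or 10 nM) in Tris buffer pH 8.0 before histone H3 peptide and SAM initiated the reaction.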

In another test the target is EZH2 (Homo sapiens, UniProt Q15910). The experiment in a line: AlphaLISA enzyme activity inhibition, EZH2. Type of test: biochemical. The procedure, abridged:
as §2

The next test concerns MKN-45 cells. Description: Cancer cell proliferation inhibition (Cell Counting Kit-8), gastric cancer cell line. In kind it is cell-based. The note with it: 1000 nM, cultured seven to 11 days; for inhibition at 1 µM: Homo sapiens, MKN-45, 264 h, read-out: % inhibition rate MKN -45; for % inhibition rate MKN -45: 1 µM. An outline of the steps: (§3)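 Single 1000 nM dose of test substance, applied to cells seeded at 100–1,000 per well in 10% FBS medium, then culture for seven to 11 days. CCK-8 read-out; inhibition rate expressed as percent relative to untreated control.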
In general terms: Tetrazolium dyes change colour on reduction, which living cells bring about.

The next test has as its system Lovo cells. Description: Cancer cell proliferation inhibition (Cell Counting Kit-8), colorectal cancer cell line. Type of test: cell-based. The note with it: 1000 nM, cultured seven to 11 days; for inhibition at 1 µM: Homo sapiens, LoVo, 264 h, read-out: % inhibition rate LoVo. An outline of the steps: as §1
For another test, the system named is MIA-PaCa-2 cells. The experiment in a line: Cancer cell proliferation inhibition (Cell Counting Kit-8), pancreatic cancer cell line. Type of test: cell-based. The note with it: 1000 nM, cultured seven to 11 days; for inhibition at 1 µM: Homo sapiens, MIA PaCa-2, 264 h, read-out: % inhibition rate MIA-Paca2; for % inhibition rate MIA-Paca2: 1 µM. An outline of the steps: as §1

Another test concerns G401 cells. The experiment in a line: Cancer cell proliferation inhibition (Cell Counting Kit-8), rhabdoid tumor cell line. In kind it is cell-based. As to conditions: 1000 nM, cultured seven to 11 days; for inhibition at 1 µM: Homo sapiens, G-401, 264 h, read-out: % inhibition rate G401. The procedure, abridged: as §3
The subject of a further test is NCI-H1299 cells. The experiment in a line: Cancer cell proliferation inhibition (Cell Counting Kit-8), lung cancer cell line. Type of test: cell-based. The note with it: 1000 nM, cultured seven to 11 days; for inhibition at 1 µM: Homo sapiens, NCI-H1299, 264 h, read-out: % inhibition rate NCI-H129 9. The procedure, abridged:
as §1

Where a name gives a salt, the structure may show the parent alone.

The results in this text go back to EP4740948A1 (Dong Wha Pharm. Co., Ltd., priority 2023, dated 2025).

A word on the inhibition: it is the change of the read-out against control, counted positive when it falls.

Chain of EZH1 (Q92800 whole entry, species assumed): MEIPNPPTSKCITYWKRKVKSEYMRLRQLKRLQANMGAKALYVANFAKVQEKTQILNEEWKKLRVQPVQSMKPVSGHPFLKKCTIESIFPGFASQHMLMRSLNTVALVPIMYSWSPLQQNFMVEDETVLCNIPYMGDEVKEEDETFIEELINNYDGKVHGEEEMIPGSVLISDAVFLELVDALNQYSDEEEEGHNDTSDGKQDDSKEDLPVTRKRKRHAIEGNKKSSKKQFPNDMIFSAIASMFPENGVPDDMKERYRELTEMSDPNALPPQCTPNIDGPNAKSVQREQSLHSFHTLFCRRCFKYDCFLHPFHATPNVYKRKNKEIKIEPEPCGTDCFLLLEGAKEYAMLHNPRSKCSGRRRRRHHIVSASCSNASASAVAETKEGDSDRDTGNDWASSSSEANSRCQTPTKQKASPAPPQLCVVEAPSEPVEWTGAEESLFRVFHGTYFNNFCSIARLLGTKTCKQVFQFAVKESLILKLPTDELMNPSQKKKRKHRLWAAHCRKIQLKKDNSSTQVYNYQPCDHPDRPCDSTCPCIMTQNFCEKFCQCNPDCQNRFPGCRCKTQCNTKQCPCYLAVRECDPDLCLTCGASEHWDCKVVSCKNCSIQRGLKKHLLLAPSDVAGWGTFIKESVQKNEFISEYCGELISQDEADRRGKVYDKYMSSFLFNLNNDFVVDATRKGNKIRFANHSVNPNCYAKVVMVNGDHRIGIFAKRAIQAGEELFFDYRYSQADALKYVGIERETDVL
Chain of EZH1 (O75530 whole entry partner, species assumed): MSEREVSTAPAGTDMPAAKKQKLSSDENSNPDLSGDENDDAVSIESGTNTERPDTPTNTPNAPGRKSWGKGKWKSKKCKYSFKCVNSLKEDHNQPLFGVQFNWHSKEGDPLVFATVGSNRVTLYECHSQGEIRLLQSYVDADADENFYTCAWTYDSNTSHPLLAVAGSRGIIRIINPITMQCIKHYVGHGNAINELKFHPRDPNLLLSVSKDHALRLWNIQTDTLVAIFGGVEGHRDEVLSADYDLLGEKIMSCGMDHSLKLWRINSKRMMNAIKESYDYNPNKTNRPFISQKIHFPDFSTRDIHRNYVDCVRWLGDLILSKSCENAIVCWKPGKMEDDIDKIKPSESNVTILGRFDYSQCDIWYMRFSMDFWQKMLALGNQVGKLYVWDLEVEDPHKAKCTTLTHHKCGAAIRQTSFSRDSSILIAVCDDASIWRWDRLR
Chain of EZH1 (Q15022 whole entry partner, species assumed): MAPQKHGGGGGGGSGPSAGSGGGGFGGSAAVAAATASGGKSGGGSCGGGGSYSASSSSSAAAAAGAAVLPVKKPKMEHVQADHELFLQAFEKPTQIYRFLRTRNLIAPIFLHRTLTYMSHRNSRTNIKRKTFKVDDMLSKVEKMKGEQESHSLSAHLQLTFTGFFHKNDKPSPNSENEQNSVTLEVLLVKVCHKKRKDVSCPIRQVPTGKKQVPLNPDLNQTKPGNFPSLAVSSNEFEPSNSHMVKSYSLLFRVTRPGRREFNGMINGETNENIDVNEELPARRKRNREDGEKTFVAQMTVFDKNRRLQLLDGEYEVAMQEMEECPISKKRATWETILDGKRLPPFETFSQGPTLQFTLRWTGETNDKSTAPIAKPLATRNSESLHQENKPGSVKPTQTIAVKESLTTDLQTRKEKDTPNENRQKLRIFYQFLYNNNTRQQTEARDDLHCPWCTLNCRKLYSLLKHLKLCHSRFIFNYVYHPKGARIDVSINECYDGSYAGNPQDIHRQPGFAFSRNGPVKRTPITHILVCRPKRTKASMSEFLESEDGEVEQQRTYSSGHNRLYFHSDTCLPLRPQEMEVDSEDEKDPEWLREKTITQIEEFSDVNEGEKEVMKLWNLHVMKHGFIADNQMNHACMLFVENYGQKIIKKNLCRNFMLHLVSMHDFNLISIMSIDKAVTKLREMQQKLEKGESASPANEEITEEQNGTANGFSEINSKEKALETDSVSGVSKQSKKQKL
Chain of EZH2 (Q15910 whole entry, species assumed): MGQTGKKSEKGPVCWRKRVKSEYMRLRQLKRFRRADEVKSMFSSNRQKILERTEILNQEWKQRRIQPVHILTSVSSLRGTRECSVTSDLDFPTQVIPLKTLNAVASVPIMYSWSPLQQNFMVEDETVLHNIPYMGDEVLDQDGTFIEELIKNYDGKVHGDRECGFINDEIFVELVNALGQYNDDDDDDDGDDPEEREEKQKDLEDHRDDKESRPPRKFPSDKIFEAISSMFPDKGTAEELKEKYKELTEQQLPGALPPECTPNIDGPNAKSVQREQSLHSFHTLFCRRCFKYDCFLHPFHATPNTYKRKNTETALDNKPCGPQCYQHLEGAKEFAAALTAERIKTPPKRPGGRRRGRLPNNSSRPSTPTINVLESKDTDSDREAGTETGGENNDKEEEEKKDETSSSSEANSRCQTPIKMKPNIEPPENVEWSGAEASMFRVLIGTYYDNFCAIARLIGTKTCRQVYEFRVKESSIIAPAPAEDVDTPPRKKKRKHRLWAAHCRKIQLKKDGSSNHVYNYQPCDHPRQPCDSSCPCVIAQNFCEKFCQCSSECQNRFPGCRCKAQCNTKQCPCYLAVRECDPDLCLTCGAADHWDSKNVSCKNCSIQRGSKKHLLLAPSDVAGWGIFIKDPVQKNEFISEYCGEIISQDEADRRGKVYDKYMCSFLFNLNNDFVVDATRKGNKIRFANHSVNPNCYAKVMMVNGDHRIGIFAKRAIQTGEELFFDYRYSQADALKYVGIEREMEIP
Chain of EZH2 (O75530 whole entry partner, species assumed): as the sequence (O75530 whole entry partner, species assumed) above
Chain of EZH2 (Q15022 whole entry partner, species assumed): as the sequence (Q15022 whole entry partner, species assumed) above

Consider `CSc1cc(C)[nH]c(=O)c1CNC(=O)c1cc(-c2ccc3occc3c2)c2c(c1C)OC(C)(C1CCN(CC(F)F)CC1)O2` (stereo not shown) [Compound 97, 7-(benzofuran-5-yl)-2-(1-(2,2-difluoroethyl)piperidin-4-yl)-2,4-dimethyl-N-((6-methyl-4-(methylthio)-2-oxo-1,2-dihydropyridin-3-yl)methyl)benzo[d][1,3]dioxole-5-carboxamide], for which the inhibition at 1 µM with SW-13 cells is not above 30%; in the test on MKN-45 cells it was 30 to 70%; with Lovo cells, not below 70%; in the test on MIA-PaCa-2 cells, not above 30%; in the test on G401 cells, 30 to 70%; in the test on NCI-H1299 cells it was not above 30%. Further, the values for the inhibition at 0.005 µM against EZH1 and against EZH2 (5nM test substance) were 25.9% and 74.7%, respectively. The inhibition at 0.01 µM against EZH1 (10nM test substance) was 20.5%; at EZH2 (10nM test substance), 82.3%.
Take `CCCCN(C)c1ccc(-c2cc(C(=O)NCc3c(SC)cc(C)[nH]c3=O)c(C)c3c2OC(C)(C2CCN(CC(F)(F)F)CC2)O3)cn1` (stereo not shown) [Compound 98, 7-(6-(butyl(methyl)amino)pyridin-3-yl)-2,4-dimethyl-N-((6-methyl-4-(methylthio)-2-oxo-1,2-dihydropyridin-3-yl)methyl)-2-(1-(2,2,2-trifluoroethyl)piperidin-4-yl)benzo[d][1,3]dioxole-5-carboxamide]: the inhibition at 1 µM in the test on SW-13 cells is not above 30%; with MKN-45 cells, 30 to 70%; in the test on Lovo cells it was not below 70%; in the test on MIA-PaCa-2 cells, not above 30%; in the test on G401 cells, 30 to 70%; in the test on NCI-H1299 cells, not above 30%. For the same compound, the inhibition at 0.005 µM came out at 30.9% against EZH1 and 52.2% on EZH2 (5nM test substance). The values for the inhibition at 0.01 µM on EZH1 (10nM test substance) and on EZH2 (10nM test substance) were 17.6% and 48.9%, respectively.
Consider `CCCCN(C)c1ncc(-c2cc(C(=O)NCc3c(SC)cc(C)[nH]c3=O)c(C)c3c2OC(C)(C2CCN(CC(F)(F)F)CC2)O3)cn1` (stereo not shown) [Compound 99], for which the inhibition at 1 µM in the test on SW-13 cells was 30 to 70%; in the test on MKN-45 cells, 30 to 70%; in the test on Lovo cells it was not below 70%; in the test on MIA-PaCa-2 cells, not above 30%; with G401 cells it was 30 to 70%; in the test with NCI-H1299 cells, not above 30%. Also, the inhibition at 0.005 µM at EZH1 was determined as 37.1%; at EZH2 (5nM test substance) it was 62.4%. The inhibition at 0.01 µM on EZH1 (10nM test substance) is 42.9%; against EZH2 (10nM test substance), 76.5%.
Take `CSc1cc(C)[nH]c(=O)c1CNC(=O)c1cc(-c2ccc(N3C[C@@H](C)O[C@@H](C)C3)nc2)c2c(c1C)OC(C)([C@H]1CC[C@H](N)CC1)O2` (stereo partly drawn) [Compound 100, 2-(trans-4-aminocyclohexyl)-7-(6-((2S,6R)-2,6-dimethylmorpholino)pyridin-3-yl)-2,4-dimethyl-N-((6-methyl-4-(methylthio)-2-oxo-1,2-dihydropyridin-3-yl)methyl)benzo[d][1,3]dioxole-5-carboxamide hydrochloride]: the inhibition at 1 µM with SW-13 cells was 30 to 70%; with MKN-45 cells it was 30 to 70%; with Lovo cells, not above 30%; in the test with MIA-PaCa-2 cells, not above 30%; with G401 cells, not below 70%; in the test on NCI-H1299 cells, not above 30%. Further, the inhibition at 0.005 µM against EZH1 stood at 30%; against EZH2 (5nM test substance) it was 96.3%. Besides, the inhibition at 0.01 µM against EZH1 (10nM test substance) came out at 68.1%; against EZH2 (10nM test substance), 100%.
Take `CSc1cc(C)[nH]c(=O)c1CNC(=O)c1cc(-c2ccc(N3C[C@@H](C)O[C@@H](C)C3)nc2)c2c(c1C)OC(C)([C@H]1CC[C@H](N3CC(O)C3)CC1)O2` (stereo partly drawn) [Compound 101, 7-(6-((2S,6R)-2,6-dimethylmorpholino)pyridin-3-yl)-2-(trans-4-(3-hydroxyazetidin-1-yl)cyclohexyl)-2,4-dimethyl-N-((6-methyl-4-(methylthio)-2-oxo-1,2-dihydropyridin-3-yl)methyl)benzo[d][1,3]dioxole-5-carboxamide]: the inhibition at 1 µM in the test on SW-13 cells was 30 to 70%; in the test with MKN-45 cells it was not above 30%; in the test on Lovo cells it was 30 to 70%; in the test on MIA-PaCa-2 cells, not above 30%; in the test on G401 cells, not below 70%; in the test with NCI-H1299 cells, not above 30%. Besides, the inhibition at 0.005 µM against EZH1 turned out to be 38.8%; against EZH2 (5nM test substance), 98.7%. In addition, the inhibition at 0.01 µM against EZH1 (10nM test substance) was 78.1%; at EZH2 (10nM test substance) it was 100%.
Regarding `CSc1cc(C)[nH]c(=O)c1CNC(=O)c1cc(-c2ccc(N3C[C@@H](C)O[C@@H](C)C3)nc2)c2c(c1C)OC(C)([C@H]1CC[C@H](N3CC(OCC(F)F)C3)CC1)O2` (stereo partly drawn) [Compound 103, 2-(trans-4-(3-(2,2-difluoroethoxy)azetidin-1-yl)cyclohexyl)-7-(6-((2S,6R)-2,6-dimethylmorpholino)pyridin-3-yl)-2,4-dimethyl-N-((6-methyl-4-(methylthio)-2-oxo-1,2-dihydropyridin-3-yl)methyl)benzo[d][1,3]dioxole-5-carboxamide], in the test on SW-13 cells, the “% inhibition rate SW-13” value is given as “+++ (+++: ≥70%)”. Also, the results for the inhibition at 0.005 µM against EZH1 and against EZH2 (5nM test substance) were 10.7% and 27.1%, respectively. The inhibition at 0.01 µM against EZH1 (10nM test substance) came to 20.5%; at EZH2 (10nM test substance), 72.5%. Further, in the test on MKN-45 cells, the “% inhibition rate MKN -45” value is “+++ (+++: ≥70%)”. Further, the figures for the inhibition at 1 µM with Lovo cells, in the test with G401 cells and in the test with NCI-H1299 cells were not below 70%, not below 70% and not above 30%, respectively. Also, the “% inhibition rate MIA-Paca2” value in the test on MIA-PaCa-2 cells was “+++ (+++: ≥70%)”.
For the compound `CSc1cc(C)[nH]c(=O)c1CNC(=O)c1cc(-c2ccc(N3C[C@@H](C)O[C@@H](C)C3)nc2)c2c(c1C)OC(C)([C@H]1CC[C@H](N3CC(OCC(F)F)C3)CC1)O2` (stereo partly drawn) [Compound 104, 2-(trans-4-(3-(2,2-difluoroethoxy)azetidin-1-yl)cyclohexyl)-7-(6-((2S,6R)-2,6-dimethylmorpholino)pyridin-3-yl)-2,4-dimethyl-N-((6-methyl-4-(methylthio)-2-oxo-1,2-dihydropyridin-3-yl)methyl)benzo[d][1,3]dioxole-5-carboxamide], the “% inhibition rate SW-13” value in the test with SW-13 cells was “++ (++: more than 30% and less than 70%)”. Moreover, the “Enzyme inhibition % EZH1” value at EZH1 (10nM test substance, 0.01 µM) came out at 19.9%. The “Enzyme inhibition % EZH2” value at EZH2 (5nM test substance, 0.005 µM) is 37.0%; at EZH2 (10nM test substance, 0.01 µM), 82.6%. Moreover, the “% inhibition rate MKN -45” value in the test on MKN-45 cells was “++ (++: more than 30% and less than 70%)”. Further, the “% inhibition rate LoVo” value with Lovo cells is listed as “+++ (+++: ≥70%)”. For the same compound, the “% inhibition rate MIA-Paca2” value in the test on MIA-PaCa-2 cells is “+ (+: ≤30%)”. Also, the “% inhibition rate G401” value with G401 cells is “+++ (+++: ≥70%)”. Further, the “% inhibition rate NCI-H129 9” value with NCI-H1299 cells was “+ (+: ≤30%)”.
Take `COC1CN([C@H]2CC[C@H](C3(C)Oc4c(-c5ccc(N6C[C@@H](C)O[C@@H](C)C6)nc5)cc(C(=O)NCc5c(SC)cc(C)[nH]c5=O)c(C)c4O3)CC2)C1` (stereo partly drawn) [Compound 106, 7-(6-((2S,6R)-2,6-dimethylmorpholino)pyridin-3-yl)-2-(trans-4-(3-methoxyazetidin-1-yl)cyclohexyl)-2,4-dimethyl-N-((6-methyl-4-(methylthio)-2-oxo-1,2-dihydropyridin-3-yl)methyl)benzo[d][1,3]dioxole-5-carboxamide]: the inhibition at 1 µM with SW-13 cells was 30 to 70%; in the test on MKN-45 cells, not above 30%; with Lovo cells, not below 70%; in the test on MIA-PaCa-2 cells, not above 30%; in the test with G401 cells, not below 70%; in the test on NCI-H1299 cells, 30 to 70%. Moreover, the figures for the inhibition at 0.005 µM at EZH1 and against EZH2 (5nM test substance) were 34.2% and 90.6%, respectively. Also, the inhibition at 0.01 µM against EZH1 (10nM test substance) turned out to be 69.1%; on EZH2 (10nM test substance), 99.9%.
